Experimental data from US9155814B2, “Nanostructured material formulated with bone cement for effective antibiotic delivery” (priority 2009, dated 2015).

Assay: In vitro drug release study in PBS buffer
Type: physicochemical
Settings: for percentage released from the bone cement: MSN-formulated bone cement loaded with gentamicin and indomethacin, FIG. 15, 80 days stated for gentamicin; for gentamicin released: FIG. 8; for amount released as a percentage to the amount loaded: after 80 days, MSN-functionalized bone cement loaded with gentamicin and vancomycin, FIG. 13; for percentage released: over 70 days, MSN functionalized bone cement loaded with gentamicin and ibuprofen, FIG. 14
Experimental: The drug release study was conducted by socking two cylinder samples of each composition in 5 ml PBS buffer (pH 7.4). The sample was put in an incubator shaker operated at 37° C. and 40 rpm. The release medium was withdrawn at predetermined time intervals, and replaced with fresh PBS buffer (5 ml) each time. The accumulative amount of gentamicin released was calculated based on the initial weight of bone cement cylinder and the drug content. The gentamicin release was followed for 80 days.
The o-phthaldialdehyde was used as a derivatizing agent to react with the amino groups of gentamicin and yield chromophoric products. The reaction was carried out making 1 ml of our problem gentamicin in solution react with 1 ml of isopropanol (to avoid the precipitation of the products formed) and 1 ml of o-phthaldialdehyde reagent. After fully mixed, the concentration of gentamicin sulfate was determined by the UV absorbance at 332 nm.
The concentration of ibuprofen, vancomycin and indomethacin was directly determined by UV-vis detection without the presence of reactive reagent.

| Compound | percentage released from the bone cement [%] | gentamicin released when loaded alone (MSN-functionalized bone cement, gentamicin alone) [%] | gentamicin released (SmartSet HV composite bone cement with 2 wt % of MSN) | gentamicin released (SmartSet HV composite bone cement with 6.0 wt % of MSN) | amount released as a percentage to the amount loaded [%] | percentage released [%] |
| --- | --- | --- | --- | --- | --- | --- |
| gentamicin | 51 | 70 | much lower | more than 55% | 40.8 | 90 |
| COc1ccc2c(c1)c(CC(=O)O)c(C)n2C(=O)c1ccc(Cl)cc1 [indomethacin] | 15 |  |  |  |  |  |
| CC(C)Cc1ccc(C(C)C(=O)O)cc1 (stereo not drawn) [ibuprofen] |  |  |  |  |  | 47 |
| CN[C@H](CC(C)C)C(=O)N[C@H]1C(=O)N[C@@H](CC(N)=O)C(=O)N[C@H]2C(=O)N[C@H]3C(=O)N[C@H](C(=O)N[C@H](C(=O)O)c4cc(O)cc(O)c4-c4cc3ccc4O)[C@H](O)c3ccc(c(Cl)c3)Oc3cc2cc(c3O[C@@H]2O[C@H](CO)[C@@H](O)[C@H](O)[C@H]2O[C@H]2C[C@](C)(N)[C@H](O)[C@H](C)O2)Oc2ccc(cc2Cl)[C@H]1O [vancomycin] |  |  |  |  | 31 |  |
